pIC50: −log10 of the molar value.

Experimental findings from patent US11987588B2, “Modulators of the beta-3 adrenergic receptor useful for the treatment or prevention of heart failure and disorders related thereto” (Arena Pharmaceuticals, Inc., priority 2017, dated 2024) are described below.

Beta-3 Adrenergic Receptor, sequence (P13945 whole entry, species assumed): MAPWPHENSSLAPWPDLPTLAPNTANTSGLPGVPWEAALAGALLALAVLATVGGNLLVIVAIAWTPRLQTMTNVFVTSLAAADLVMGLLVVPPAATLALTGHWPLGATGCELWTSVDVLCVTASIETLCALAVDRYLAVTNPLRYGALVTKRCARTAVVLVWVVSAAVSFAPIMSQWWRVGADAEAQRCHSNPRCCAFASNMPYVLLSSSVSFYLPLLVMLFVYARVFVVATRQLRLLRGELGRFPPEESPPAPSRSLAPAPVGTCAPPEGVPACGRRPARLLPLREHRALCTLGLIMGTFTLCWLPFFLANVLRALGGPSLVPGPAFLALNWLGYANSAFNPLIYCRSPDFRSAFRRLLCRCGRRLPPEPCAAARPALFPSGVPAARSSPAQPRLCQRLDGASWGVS

This experiment has as its target Beta-3 Adrenergic Receptor (Homo sapiens (Human), UniProt P13945). The experiment is described as follows: Homogeneous Time-Resolved Fluorescence (HTRF) cAMP antagonist assay, IC50 determination. Type of experiment: cell-based. The note with it: CHO-K1 cells stably expressing recombinant receptor, isoproterenol at EC90. The method, boiled down:
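Antagonist mode: isoproterenol at its predetermined EC90 added after compound to recombinant CHO-K1 cells in IBMX-containing PBS, 1 h, room temperature. Compounds tested as 5-fold, 10-point dilutions, top final typically 10 or 100 μM. HTRF signal converted to cAMP via standard curve, giving IC50.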
On the technique in general: TR-FRET usually uses a lanthanide donor and a delayed reading to cut background.
Consider `CNS(=O)(=O)c1cccc(OC[C@@H](O)CNC2COC3(CCN(S(=O)(=O)c4ccc(Br)c(Cl)c4)CC3)C2)c1` (stereo partly drawn) [Compound 155, 3-((2S)-3-(8-(4-bromo-3-chlorophenylsulfonyl)-1-oxa-8-azaspiro[4.5]decan-3-ylamino)-2-hydroxypropoxy)-N-methylbenzenesulfonamide], for which the negative logarithm of the IC50 (pIC50) (commonly −log10 of the IC50, conventionally taken in molar units) was 8.36.

`CNS(=O)(=O)c1cccc(OC[C@@H](O)CNC2COC3(CCN(S(=O)(=O)c4c(F)cccc4F)CC3)C2)c1` (stereo partly drawn) [Compound 156, 3-((2S)-3-(8-(2,6-difluorophenylsulfonyl)-1-oxa-8-azaspiro[4.5]decan-3-ylamino)-2-hydroxypropoxy)-N-methylbenzenesulfonamide]: the pIC50 is 7.60.

`CNS(=O)(=O)c1cccc(OC[C@@H](O)CNC2COC3(CCN(S(=O)(=O)c4ccc(C#N)cc4Cl)CC3)C2)c1` (stereo partly drawn) [Compound 157, 3-((2S)-3-(8-(2-chloro-4-cyanophenylsulfonyl)-1-oxa-8-azaspiro[4.5]decan-3-ylamino)-2-hydroxypropoxy)-N-methylbenzenesulfonamide]: the pIC50 is 7.58.

Turning to `CNS(=O)(=O)c1cccc(OC[C@@H](O)CNC2COC3(CCN(S(=O)(=O)c4ccc(Cl)cc4Cl)CC3)C2)c1` (stereo partly drawn) [Compound 158, 3-((2S)-3-(8-(2,4-dichlorophenylsulfonyl)-1-oxa-8-azaspiro[4.5]decan-3-ylamino)-2-hydroxypropoxy)-N-methylbenzenesulfonamide], the negative-log IC50 (pIC50) is 7.59.

On to `CNS(=O)(=O)c1cccc(OC[C@@H](O)CNC2COC3(CCN(S(=O)(=O)c4ccc(Br)c(C)c4)CC3)C2)c1` (stereo partly drawn) [Compound 159, 3-((2S)-3-(8-(4-bromo-3-methylphenylsulfonyl)-1-oxa-8-azaspiro[4.5]decan-3-ylamino)-2-hydroxypropoxy)-N-methylbenzenesulfonamide], for which the negative-log IC50 (pIC50) is 8.32.

For `CNS(=O)(=O)c1cccc(OC[C@@H](O)CNC2COC3(CCN(S(=O)(=O)c4cccc(C)c4F)CC3)C2)c1` (stereo partly drawn) [Compound 160, 3-((2S)-3-(8-(2-fluoro-3-methylphenylsulfonyl)-1-oxa-8-azaspiro[4.5]decan-3-ylamino)-2-hydroxypropoxy)-N-methylbenzenesulfonamide], the pIC50 is 7.84.

`CNS(=O)(=O)c1cccc(OC[C@@H](O)CNC2COC3(CCN(S(=O)(=O)c4cccc(Oc5ccc(C(F)(F)F)cc5)c4)CC3)C2)c1` (stereo partly drawn) [Compound 161, 3-((2S)-2-hydroxy-3-(8-(3-(4-(trifluoromethyl)phenoxy)phenylsulfonyl)-1-oxa-8-azaspiro[4.5]decan-3-ylamino)propoxy)-N-methylbenzenesulfonamide]: the pIC50 was 7.08.

Consider `CNS(=O)(=O)c1cccc(OC[C@@H](O)CNC2COC3(CCN(S(=O)(=O)c4cc(C)oc4C(F)(F)F)CC3)C2)c1` (stereo partly drawn) [Compound 162, 3-((2S)-2-hydroxy-3-(8-(5-methyl-2-(trifluoromethyl)furan-3-ylsulfonyl)-1-oxa-8-azaspiro[4.5]decan-3-ylamino)propoxy)-N-methylbenzenesulfonamide], for which the pIC50 was 7.37.

`CNS(=O)(=O)c1cccc(OC[C@@H](O)CNC2COC3(CCN(S(=O)(=O)c4c(C)nn(C)c4Cl)CC3)C2)c1` (stereo partly drawn) [Compound 163, 3-((2S)-3-(8-(5-chloro-1,3-dimethyl-1H-pyrazol-4-ylsulfonyl)-1-oxa-8-azaspiro[4.5]decan-3-ylamino)-2-hydroxypropoxy)-N-methylbenzenesulfonamide]: the negative-log IC50 (pIC50) was 7.19.

As for `O=C1CCCN1CCNS(=O)(=O)c1cccc(OC[C@@H](O)CNC2COC3(CCN(S(=O)(=O)c4ccc5ccccc5c4)CC3)C2)c1` (stereo partly drawn) [Compound 164, 3-((2S)-2-hydroxy-3-(8-(naphthalen-2-ylsulfonyl)-1-oxa-8-azaspiro[4.5]decan-3-ylamino)propoxy)-N-(2-(2-oxopyrrolidin-1-yl)ethyl)benzenesulfonamide], the pIC50 is 7.07.

For `CCN1CCC(NS(=O)(=O)c2cccc(OC[C@@H](O)CNC3COC4(CCN(S(=O)(=O)c5ccc6ccccc6c5)CC4)C3)c2)CC1` (stereo partly drawn) [Compound 165, N-(1-ethylpiperidin-4-yl)-3-((2S)-2-hydroxy-3-(8-(naphthalen-2-ylsulfonyl)-1-oxa-8-azaspiro[4.5]decan-3-ylamino)propoxy)benzenesulfonamide], the negative logarithm of the IC50 (pIC50) is 6.51.

As for `O=S(=O)(NC[C@H](O)CO)c1cccc(OC[C@@H](O)CNC2COC3(CCN(S(=O)(=O)c4ccc5ccccc5c4)CC3)C2)c1` (stereo partly drawn) [Compound 166, N—((S)-2,3-dihydroxypropyl)-3-((2S)-2-hydroxy-3-(8-(naphthalen-2-ylsulfonyl)-1-oxa-8-azaspiro[4.5]decan-3-ylamino)propoxy)benzenesulfonamide], the pIC50 was 6.84.

Consider `CN(C)CCNS(=O)(=O)c1cccc(OC[C@@H](O)CNC2COC3(CCN(S(=O)(=O)c4ccc5ccccc5c4)CC3)C2)c1` (stereo partly drawn) [Compound 167, N-(2-(dimethylamino)ethyl)-3-((2S)-2-hydroxy-3-(8-(naphthalen-2-ylsulfonyl)-1-oxa-8-azaspiro[4.5]decan-3-ylamino)propoxy)benzenesulfonamide], for which the pIC50 was 5.67.

`O=S(=O)(NCC1CCCNC1)c1cccc(OC[C@@H](O)CNC2COC3(CCN(S(=O)(=O)c4ccc5ccccc5c4)CC3)C2)c1` (stereo partly drawn) [Compound 168, 3-((2S)-2-hydroxy-3-(8-(naphthalen-2-ylsulfonyl)-1-oxa-8-azaspiro[4.5]decan-3-ylamino)propoxy)-N-(piperidin-3-ylmethyl)benzenesulfonamide]: the pIC50 was 5.83.

For `CNS(=O)(=O)c1cccc(OC[C@@H](O)CNC2COC3(CCN(S(=O)(=O)c4ccc5cc(OC)ccc5c4)CC3)C2)c1` (stereo partly drawn) [Compound 169, 3-((2S)-2-hydroxy-3-(8-(6-methoxynaphthalen-2-ylsulfonyl)-1-oxa-8-azaspiro[4.5]decan-3-ylamino)propoxy)-N-methylbenzenesulfonamide], the pIC50 was 7.94.

Take `CNS(=O)(=O)c1cccc(OC[C@@H](O)CNC2COC3(CCN(S(=O)(=O)c4cccc(Oc5ccccc5C(F)(F)F)c4)CC3)C2)c1` (stereo partly drawn) [Compound 170, 3-((2S)-2-hydroxy-3-(8-(3-(2-(trifluoromethyl)phenoxy)phenylsulfonyl)-1-oxa-8-azaspiro[4.5]decan-3-ylamino)propoxy)-N-methylbenzenesulfonamide]: the pIC50 was 7.30.

With `CNS(=O)(=O)c1cccc(OC[C@@H](O)CNC2COC3(CCN(S(=O)(=O)c4ccccc4OC(F)(F)F)CC3)C2)c1` (stereo partly drawn) [Compound 171, 3-((2S)-2-hydroxy-3-(8-(2-(trifluoromethoxy)phenylsulfonyl)-1-oxa-8-azaspiro[4.5]decan-3-ylamino)propoxy)-N-methylbenzenesulfonamide], the pIC50 was 7.51.

Turning to `CNS(=O)(=O)c1cccc(OC[C@@H](O)CNC2COC3(CCN(S(=O)(=O)Cc4ccccc4)CC3)C2)c1` (stereo partly drawn) [Compound 172, 3-((2S)-3-(8-(benzylsulfonyl)-1-oxa-8-azaspiro[4.5]decan-3-ylamino)-2-hydroxypropoxy)-N-methylbenzenesulfonamide], the pIC50 is 7.10.

As to `CNS(=O)(=O)c1cccc(OC[C@@H](O)CNC2COC3(CCN(S(=O)(=O)c4ccc(OC)c5nonc45)CC3)C2)c1` (stereo partly drawn) [Compound 173, 3-((2S)-2-hydroxy-3-(8-(7-methoxybenzo[c][1,2,5]oxadiazol-4-ylsulfonyl)-1-oxa-8-azaspiro[4.5]decan-3-ylamino)propoxy)-N-methylbenzenesulfonamide], the negative logarithm of the IC50 (pIC50) is 7.54.

As to `CNS(=O)(=O)c1cccc(OC[C@@H](O)CNC2COC3(CCN(S(=O)(=O)c4ccccc4-c4ccccc4)CC3)C2)c1` (stereo partly drawn) [Compound 174, 3-((2S)-3-(8-(biphenyl-2-ylsulfonyl)-1-oxa-8-azaspiro[4.5]decan-3-ylamino)-2-hydroxypropoxy)-N-methylbenzenesulfonamide], the pIC50 is 6.90.

As to `CNS(=O)(=O)c1cccc(OC[C@@H](O)CNC2COC3(CCN(S(=O)(=O)c4c(C)ccc5nonc45)CC3)C2)c1` (stereo partly drawn) [Compound 175, 3-((2S)-2-hydroxy-3-(8-(5-methylbenzo[c][1,2,5]oxadiazol-4-ylsulfonyl)-1-oxa-8-azaspiro[4.5]decan-3-ylamino)propoxy)-N-methylbenzenesulfonamide], the pIC50 is 7.62.

As for `CNS(=O)(=O)c1cccc(OC[C@@H](O)CNC2COC3(CCN(S(=O)(=O)c4cc(C)ccc4OC)CC3)C2)c1` (stereo partly drawn) [Compound 176, 3-((2S)-2-hydroxy-3-(8-(2-methoxy-5-methylphenylsulfonyl)-1-oxa-8-azaspiro[4.5]decan-3-ylamino)propoxy)-N-methylbenzenesulfonamide], the negative logarithm of the IC50 (pIC50) was 7.63.

For the compound `CNS(=O)(=O)c1cccc(OC[C@@H](O)CNC2COC3(CCN(S(=O)(=O)c4ccc5nsnc5c4)CC3)C2)c1` (stereo partly drawn) [Compound 177, 3-((2S)-3-(8-(benzo[c][1,2,5]thiadiazol-5-ylsulfonyl)-1-oxa-8-azaspiro[4.5]decan-3-ylamino)-2-hydroxypropoxy)-N-methylbenzenesulfonamide], the negative-log IC50 (pIC50) was 7.92.

On to `CNS(=O)(=O)c1cccc(OC[C@@H](O)CNC2COC3(CCN(S(=O)(=O)c4cc(Cl)c(Cl)s4)CC3)C2)c1` (stereo partly drawn) [Compound 178, 3-((2S)-3-(8-(4,5-dichlorothiophen-2-ylsulfonyl)-1-oxa-8-azaspiro[4.5]decan-3-ylamino)-2-hydroxypropoxy)-N-methylbenzenesulfonamide], for which the pIC50 is 7.68.

Consider `CNS(=O)(=O)c1cccc(OC[C@@H](O)CNC2COC3(CCN(S(=O)(=O)c4cc(C)cc(F)c4)CC3)C2)c1` (stereo partly drawn) [Compound 179, 3-((2S)-3-(8-(3-fluoro-5-methylphenylsulfonyl)-1-oxa-8-azaspiro[4.5]decan-3-ylamino)-2-hydroxypropoxy)-N-methylbenzenesulfonamide], for which the pIC50 is 8.09.

Consider `CNS(=O)(=O)c1cccc(OC[C@@H](O)CNC2COC3(CCN(S(=O)(=O)c4cc(C)ccc4C#N)CC3)C2)c1` (stereo partly drawn) [Compound 180, 3-((2S)-3-(8-(2-cyano-5-methylphenylsulfonyl)-1-oxa-8-azaspiro[4.5]decan-3-ylamino)-2-hydroxypropoxy)-N-methylbenzenesulfonamide], for which the negative logarithm of the IC50 (pIC50) was 7.53.
